Usually IC50 stands for the midpoint of a concentration-inhibition curve. A word on the CC50: it is the concentration that lowers cell viability or growth by half.

Where only a bound is given, the exact number is not on record here.

The source of these data is ChEMBL document CHEMBL3797151, “Design, synthesis, assessment, and molecular docking of novel pyrrolopyrimidine (7-deazapurine) derivatives as non-nucleoside hepatitis C virus NS5B polymerase inhibitors” (Bioorg Med Chem, 2016).

For data set [1], the system named is Hepatitis C virus. Briefly: Antiviral activity against HCV genotype 4a ED-43/SG-feo (VYG) replicons infected in human Huh7.5 cells assessed as inhibition of viral replication after 72 hrs by immunofluorescence assay. In kind it is functional, organism-based, Hepacivirus hominis. As to conditions: Huh-7, 72 h. A general note: In antiviral work, replicon cells carry a viral genome segment that copies itself.

Data set [2] can be described thus: Cytotoxicity against human Huh7.5 cells infected with HCV genotype 4a assessed as morphological changes after 72 hrs by inverted light microscopy. Type of data set: cell-based, Huh-7.
Data set [3] is described as follows: Cytotoxicity against human Huh7.5 cells infected with HCV genotype 4a assessed as cell viability after 72 hrs by trypan blue dye-based phase contrast microscopy. Particulars: Huh-7, 72 h.
Data set [4] has as its system Hepatitis C virus. Briefly: Antiviral activity against HCV genotype 4a ED-43/SG-feo (VYG) replicons infected in human Huh7.5 cells assessed as inhibition of viral replication at non-toxic dose after 72 hrs by immunofluorescence assay. Type of data set: functional, Hepacivirus hominis, Huh-7.

Turning to `Cc1cc(C)n(-c2ncnc3c2c(-c2ccccc2)c(-c2ccccc2)n3-c2cccc(Cl)c2)n1`, the IC50 in the data set with Hepatitis C virus [1] is over 150 µM. Further, in data set [2], the CC50 at 72 h is 147 µM. In data set [3], the CC50 is 147 µM.
Take `Cc1ccccc1Nc1ncnc2c1c(-c1ccccc1)c(-c1ccccc1)n2-c1cccc(Cl)c1`: the IC50 in the data set on Hepatitis C virus [1] is 92.4 µM. The “inhibition (INH)” value in the data set on Hepatitis C virus [4] is 76.7%. The CC50 at 72 h in data set [2] was 144 µM. For the same compound, the CC50 in data set [3] amounted to 144 µM.
Regarding `Clc1ccc(-n2c(-c3ccccc3)c(-c3ccccc3)c3c(Cl)ncnc32)cc1`, the 50% inhibitory concentration (IC50) in the data set on Hepatitis C virus [1] came out at 108 µM. In the data set on Hepatitis C virus [4], the “inhibition (INH)” value was determined as 73.3%. Further, the CC50 at 72 h in data set [2] stood at 120 µM. Moreover, in data set [3], the CC50 came out at 120 µM.
`Clc1ccc(/C=N/Nc2ncnc3c2c(-c2ccccc2)c(-c2ccccc2)n3-c2cccc(Cl)c2)cc1`: in the data set with Hepatitis C virus [1], the 50% inhibitory concentration (IC50) worked out at 102 µM. Besides, the “inhibition (INH)” value in the data set with Hepatitis C virus [4] is listed as 63.3%. Besides, the CC50 at 72 h in data set [2] is 131 µM. Further, the CC50 in data set [3] came out at 131 µM.
Regarding `Clc1cccc(-n2c(-c3ccccc3)c(-c3ccccc3)c3c(Cl)ncnc32)c1`, in the data set with Hepatitis C virus [1], the IC50 is over 150 µM. Further, the “inhibition (INH)” value in the data set on Hepatitis C virus [4] stood at 0%. Besides, the CC50 at 72 h in data set [2] turned out to be 168 µM. In data set [3], the CC50 was 168 µM.
For the compound `Clc1cccc(-n2c(-c3ccccc3)c(-c3ccccc3)c3c(N/N=C/c4ccccc4)ncnc32)c1`, the IC50 with Hepatitis C virus [1] was over 150 µM. In addition, the CC50 at 72 h in data set [2] was determined as 140 µM. In addition, the CC50 in data set [3] was found to be 140 µM.
As to `O=c1[nH]nc2c3c(-c4ccccc4)c(-c4ccccc4)n(-c4ccc(Cl)cc4)c3ncn12`, the IC50 in the data set with Hepatitis C virus [1] is over 150 µM. Also, the CC50 at 72 h in data set [2] was found to be 160 µM. Moreover, the CC50 in data set [3] turned out to be 160 µM.
In the case of `Cc1cc(C)n(-c2ncnc3c2c(-c2ccccc2)c(-c2ccccc2)n3C2CCCCC2)n1`, the IC50 in the data set on Hepatitis C virus [1] was over 150 µM. In addition, the CC50 at 72 h in data set [2] was 156 µM. Further, the CC50 in data set [3] came to 156 µM.
Consider `NNc1ncnc2c1c(-c1ccccc1)c(-c1ccccc1)n2-c1ccc(Cl)cc1`, for which the IC50 with Hepatitis C virus [1] is over 150 µM. The “inhibition (INH)” value in the data set on Hepatitis C virus [4] is 0%. In addition, the CC50 at 72 h in data set [2] was found to be 146 µM. The CC50 in data set [3] amounted to 146 µM.
For `COc1ccc(/C=N/Nc2ncnc3c2c(-c2ccccc2)c(-c2ccccc2)n3-c2cccc(Cl)c2)cc1`, the IC50 in the data set on Hepatitis C virus [1] is over 150 µM. Also, the half-maximal cytotoxic concentration (CC50) at 72 h in data set [2] amounted to 151 µM. The CC50 in data set [3] came out at 151 µM.
As to `Clc1ccc(/C=N/Nc2ncnc3c2c(-c2ccccc2)c(-c2ccccc2)n3C2CCCCC2)cc1`, in the data set on Hepatitis C virus [1], the IC50 was over 150 µM. In addition, in data set [2], the CC50 at 72 h amounted to 158 µM. Moreover, the CC50 in data set [3] came out at 158 µM.
With `COc1ccc(/C=N/Nc2ncnc3c2c(-c2ccccc2)c(-c2ccccc2)n3-c2ccc(Cl)cc2)cc1`, in the data set on Hepatitis C virus [1], the IC50 is over 150 µM. In data set [2], the CC50 at 72 h is 113 µM. Besides, the CC50 in data set [3] was found to be 113 µM.
Regarding `Cc1cc(C)n(-c2ncnc3c2c(-c2ccccc2)c(-c2ccccc2)n3-c2ccc(Cl)cc2)n1`, in the data set with Hepatitis C virus [1], the IC50 is over 150 µM. For the same compound, in data set [2], the CC50 at 72 h is 147 µM. Further, in data set [3], the CC50 worked out at 147 µM.
Take `O=c1[nH]nc2c3c(-c4ccccc4)c(-c4ccccc4)n(C4CCCCC4)c3ncn12`: the IC50 in the data set on Hepatitis C virus [1] is over 150 µM. Further, the cytotoxic concentration (CC50) at 72 h in data set [2] is 171 µM. In addition, the CC50 in data set [3] worked out at 171 µM.
As to `O=c1[nH]nc2c3c(-c4ccccc4)c(-c4ccccc4)n(-c4cccc(Cl)c4)c3ncn12`, in the data set with Hepatitis C virus [1], the IC50 is over 150 µM. Further, the CC50 at 72 h in data set [2] was determined as 183 µM. The CC50 in data set [3] was 183 µM.
Take `COc1ccc(/C=N/Nc2ncnc3c2c(-c2ccccc2)c(-c2ccccc2)n3C2CCCCC2)cc1`: in the data set on Hepatitis C virus [1], the IC50 was over 150 µM. Moreover, the CC50 at 72 h in data set [2] worked out at 140 µM. The CC50 in data set [3] stood at 140 µM.
In the case of `Clc1ccc(-n2c(-c3ccccc3)c(-c3ccccc3)c3c(N/N=C/c4ccccc4)ncnc32)cc1`, the IC50 in the data set with Hepatitis C virus [1] is over 150 µM. In addition, in data set [2], the CC50 at 72 h is 140 µM. For the same compound, the CC50 in data set [3] amounted to 140 µM.
As for `Cc1ccccc1Nc1ncnc2c1c(-c1ccccc1)c(-c1ccccc1)n2-c1ccc(Cl)cc1`, the IC50 in the data set with Hepatitis C virus [1] stood at 82.1 µM. In the data set with Hepatitis C virus [4], the “inhibition (INH)” value was found to be 90%. Besides, the CC50 at 72 h in data set [2] was 144 µM. The cytotoxic concentration (CC50) in data set [3] was 144 µM.
As for `NNc1ncnc2c1c(-c1ccccc1)c(-c1ccccc1)n2-c1cccc(Cl)c1`, the IC50 in the data set with Hepatitis C virus [1] is over 150 µM. In addition, the “inhibition (INH)” value with Hepatitis C virus [4] is listed as 0%. Further, the CC50 at 72 h in data set [2] turned out to be 146 µM. Further, the CC50 in data set [3] was determined as 146 µM.
In the case of `Clc1ccc(/C=N/Nc2ncnc3c2c(-c2ccccc2)c(-c2ccccc2)n3-c2ccc(Cl)cc2)cc1`, in the data set on Hepatitis C virus [1], the IC50 is 93.6 µM. Besides, in the data set with Hepatitis C virus [4], the “inhibition (INH)” value is 70%. Also, the CC50 at 72 h in data set [2] was found to be 131 µM. Further, the CC50 in data set [3] was determined as 131 µM.
